Measurements reported in the NIST ThermoML archive (doi:10.1016/j.tca.2012.05.025).
Numbers after ± are expanded uncertainties.

Key:
[1] = refractive index (Na D-line) (dimensionless); details: 101.33 kPa, Liquid, Standard Abbe refractometry
[2] = for surface tension liquid-gas: roughened platinum plate-detachment; for viscosity / mass density: 101 kPa, Liquid; for viscosity: Capillary tube (Ostwald / Ubbelohde) method; for mass density: Vibrating tube method
[3] = refractive index (Na D-line) (dimensionless); xn = mol fraction of the nth substance listed; details: 101 kPa, Liquid, Standard Abbe refractometry, x2 = 0
[4] = xn = mol fraction of the nth substance listed; details: x2 = 0; for surface tension liquid-gas: roughened platinum plate-detachment; for viscosity / mass density: 101 kPa, Liquid; for viscosity: Capillary tube (Ostwald / Ubbelohde) method; for mass density: Vibrating tube method

Work on `CN(C)CCCO` [3-dimethylamino-1-propanol] yielded a refractive index ([1]; 293.15 K) of 1.4368 ± 0.005, a refractive index ([1]; 298.15 K) of 1.4347 ± 0.005 and a refractive index ([1]; 303.15 K) of 1.4326 ± 0.005. For the same compound, the refractive index ([1]; 308.15 K) was 1.4305 ± 0.005, the refractive index ([1]; 313.15 K) was 1.4285 ± 0.005 and the refractive index ([1]; 318.15 K) was 1.4264 ± 0.005. The refractive index ([1]; 323.15 K) was 1.4243 ± 0.005, the refractive index ([1]; 328.15 K) was 1.4222 ± 0.005 and the refractive index ([1]; 333.15 K) was 1.42 ± 0.005. For the same compound, the surface tension liquid-gas ([2]; 298.15 K) was 29.01 ± 0.18 mN/m, the viscosity ([2]; 298.15 K) was 5.839 ± 0.12 mPa·s and the mass density ([2]; 298.15 K) was 880.25 ± 0.24 kg/m3. It also gave a surface tension liquid-gas ([2]; 303.15 K) of 29.28 ± 0.18 mN/m, a viscosity ([2]; 303.15 K) of 4.963 ± 0.11 mPa·s and a mass density ([2]; 303.15 K) of 876.46 ± 0.24 kg/m3. It also gave a surface tension liquid-gas ([2]; 308.15 K) of 28.88 ± 0.18 mN/m, a surface tension liquid-gas ([2]; 313.15 K) of 28.47 ± 0.17 mN/m and a viscosity ([2]; 313.15 K) of 4.266 ± 0.091 mPa·s. For the same compound, the mass density ([2]; 313.15 K) was 868.42 ± 0.24 kg/m3, the surface tension liquid-gas ([2]; 318.15 K) was 28.13 ± 0.17 mN/m and the surface tension liquid-gas ([2]; 323.15 K) was 27.63 ± 0.17 mN/m. The viscosity ([2]; 323.15 K) was 3.253 ± 0.069 mPa·s, the mass density ([2]; 323.15 K) was 860.29 ± 0.24 kg/m3 and the surface tension liquid-gas ([2]; 333.15 K) was 26.81 ± 0.17 mN/m. It also gave a viscosity ([2]; 333.15 K) of 2.768 ± 0.059 mPa·s, a mass density ([2]; 333.15 K) of 852.1 ± 0.24 kg/m3 and a viscosity ([2]; 343.15 K) of 2.03 ± 0.043 mPa·s. The mass density ([2]; 343.15 K) was 843.77 ± 0.24 kg/m3.

`O` [water] showed a refractive index ([1]; 293.15 K) of 1.333 ± 0.005, a refractive index ([1]; 298.15 K) of 1.3325 ± 0.005 and a refractive index ([1]; 303.15 K) of 1.3319 ± 0.005. The refractive index ([1]; 308.15 K) was 1.3314 ± 0.005, the refractive index ([1]; 313.15 K) was 1.3307 ± 0.005 and the refractive index ([1]; 318.15 K) was 1.3299 ± 0.005. The refractive index ([1]; 323.15 K) was 1.3291 ± 0.005, the refractive index ([1]; 328.15 K) was 1.3282 ± 0.005 and the refractive index ([1]; 333.15 K) was 1.3273 ± 0.005. It also gave a surface tension liquid-gas ([2]; 298.15 K) of 72.09 ± 0.1 mN/m, a viscosity ([2]; 298.15 K) of 0.882 ± 0.018 mPa·s and a surface tension liquid-gas ([2]; 303.15 K) of 71.27 ± 0.1 mN/m. It also gave a viscosity ([2]; 303.15 K) of 0.804 ± 0.017 mPa·s, a surface tension liquid-gas ([2]; 308.15 K) of 70.44 ± 0.1 mN/m and a surface tension liquid-gas ([2]; 313.15 K) of 69.66 ± 0.1 mN/m. For the same compound, the viscosity ([2]; 313.15 K) was 0.659 ± 0.014 mPa·s, the surface tension liquid-gas ([2]; 318.15 K) was 68.83 ± 0.1 mN/m and the surface tension liquid-gas ([2]; 323.15 K) was 67.95 ± 0.1 mN/m. For the same compound, the viscosity ([2]; 323.15 K) was 0.551 ± 0.012 mPa·s, the mass density ([2]; 323.15 K) was 988.03 ± 0.11 kg/m3 and the surface tension liquid-gas ([2]; 333.15 K) was 66.23 ± 0.1 mN/m. For the same compound, the viscosity ([2]; 333.15 K) was 0.47 ± 0.01 mPa·s, the mass density ([2]; 333.15 K) was 983.19 ± 0.11 kg/m3 and the viscosity ([2]; 343.15 K) was 0.407 ± 0.009 mPa·s. The mass density ([2]; 343.15 K) was 977.75 ± 0.11 kg/m3.

For `O` [water] + CN(C)CCCO, the refractive index ([3]; 293.15 K) was 1.333 ± 0.005, the refractive index ([3]; 298.15 K) was 1.3325 ± 0.005 and the refractive index ([3]; 303.15 K) was 1.3319 ± 0.005. It also gave a refractive index ([3]; 308.15 K) of 1.3314 ± 0.005, a refractive index ([3]; 313.15 K) of 1.3307 ± 0.005 and a refractive index ([3]; 318.15 K) of 1.3299 ± 0.005. The refractive index ([3]; 323.15 K) was 1.3291 ± 0.005, the refractive index ([3]; 328.15 K) was 1.3282 ± 0.005 and the refractive index ([3]; 333.15 K) was 1.3273 ± 0.005. For the same compound, the surface tension liquid-gas ([4]; 298.15 K) was 72.09 ± 2 mN/m, the viscosity ([4]; 298.15 K) was 0.882 ± 0.018 mPa·s and the surface tension liquid-gas ([4]; 303.15 K) was 71.27 ± 2 mN/m. It also gave a viscosity ([4]; 303.15 K) of 0.804 ± 0.017 mPa·s, a surface tension liquid-gas ([4]; 308.15 K) of 70.44 ± 2 mN/m and a surface tension liquid-gas ([4]; 313.15 K) of 69.66 ± 2 mN/m. For the same compound, the viscosity ([4]; 313.15 K) was 0.659 ± 0.014 mPa·s, the surface tension liquid-gas ([4]; 318.15 K) was 68.83 ± 2 mN/m and the surface tension liquid-gas ([4]; 323.15 K) was 67.95 ± 2 mN/m. The viscosity ([4]; 323.15 K) was 0.551 ± 0.012 mPa·s, the mass density ([4]; 323.15 K) was 988.03 ± 0.11 kg/m3 and the surface tension liquid-gas ([4]; 333.15 K) was 66.23 ± 2 mN/m. It also gave a viscosity ([4]; 333.15 K) of 0.47 ± 0.01 mPa·s, a mass density ([4]; 333.15 K) of 983.19 ± 0.11 kg/m3 and a viscosity ([4]; 343.15 K) of 0.407 ± 0.009 mPa·s. For the same compound, the mass density ([4]; 343.15 K) was 977.75 ± 0.11 kg/m3.
